Measured values: PMC9457600, “Synthesis, Leishmanicidal, Trypanocidal, Antiproliferative Assay and Apoptotic Induction of (2-Phenoxypyridin-3-yl)naphthalene-1(2H)-one Derivatives” (Molecules, 2022)

Legend:
MRC-5 = assay: MTS assay on non-malignant MRC-5; format: cell-based; conditions: MRC5; noncancerous human cell line
Protocol: (§1) In our laboratory, IMTM, we generated the daunorubicin-resistant subline of CCRF-CEM cells (CEM-DNR bulk) and paclitaxel-resistant subline K562-TAX, as described previously. […] Both ABC transporters are involved in drug resistance. As a control, human fibroblasts MRC-5 and BJ cell lines were used. […] Adherent cells were passaged using PBS containing 0.25% trypsin plus 0.01% EDTA (ethylenediamine tetraacetic acid) every 2–3 days.
(§2) The antiproliferative activity of compounds was determined using a standard 3-(4,5-dimethylthiazol-2yl)-5-(3-carboxymethoxyphenyl)-2-(4-sulfophenyl)-2H-tetrazolium (MTS) reduction assay on a robotic high throughput screening platform (HighResBio, Boston, MA, USA) following treatment of cells for 3–7 days. The IC50 values were calculated from the appropriate dose–response curves with Dotmatics software (San Diego, CA, USA).

CCRF-CEM = assay: MTS antiproliferative assay CCRF-CEM; format: cell-based; conditions: Homo sapiens, 72 h of incubation
Excerpt: (§3) The cell lines used were acquired from the American Type Culture Collection (ATCC), CCRF-CEM (T lymphoblastic leukemia), K562 ([…]), U2OS (osteosarcoma), HCT116 (colon carcinoma), A549 (lung adenocarcinoma) and HCT116p53−/− (HCT116 cell line mutated in p53) Horizon Discovery Ltd., (Waterbeach, Cambridge, United Kingdom).
as §1, §2

VERO cells = assay: MTT cytotoxicity on VERO cells; format: cell-based, African green monkey; conditions: Chlorocebus sabaeus, 72 h
Protocol: Vero cells were derived from the kidney of an African green monkey, cells were maintained in Dulbecco’s Modified Eagle’s Medium (DMEM), supplemented with 10% heat-inactivated FBS and penicillin-streptomycin solution 1% at 37 °C, 5% CO2 atmosphere and > 95% humidity. We evaluated through a colorimetric method the effect of compounds 8–23 on the promastigotes of L. brasiliensis. Briefly, 96-well plates were used, where 2 × 10^6 parasites/mL were seeded. A concentration of 50 μM was used for each compound and an incubation time of 96 h at 29 °C. 3-(4,5-dimethylthiazol-2-yl)-2,5-diphenyl tetrazolium bromide (MTT) 1 μg/mL was added and incubated in darkness for 4 h, acidic isopropanol (4N) was added and the plate was read at 570 nm in a spectrophotometer Synergy HT (Biotek). Miltefosine was used as a reference drug. The EC50 calculation of the selected compound was performed using growth curves. Direct counting was used to monitor the proliferation of parasites, three independent experiments were performed for each concentration of the compounds evaluated. The in vitro evaluations of compounds toxicity by MTT in VERO and BMDM cells follow a methodology described above with some modifications. The selectivity index was calculated with SI = CC50/EC50, where CC50 was the maximum concentration range of compounds 10, 21–23 used to evaluate cytotoxicity in VERO and BMDM cells. The trypanocidal activity of compounds 8–23 was evaluated on the viability of T. cruzi epimastigotes through a colorimetric method adapted with minor modifications. 2 × 10^6 parasites/mL were seeded in a 96-well plate, adding 50 μM of each derivative dissolved in DMSO (final concentration remained below 1%). The plate was incubated for 96 h at 29 °C. Then, 1 μg/mL of 3-(4,5-dimethylthiazol-2-yl)-2,5-diphenyl tetrazolium bromide (MTT) was added and incubated in darkness for 4 h. After this time, acidic isopropanol (4N) was added and the plate was read at 570 nm in a spectrophotometer Synergy HT (Biotek). Benznidazole was used as a reference drug. The in vitro evaluations of compounds toxicity by MTT in VERO and BMDM cells follow a methodology described above with some modifications. Cells were counted in suspension and seeded at 20 × 10^3 cells/well. The test was carried out in triplicate on 96-well microplates in different concentrations: 50 μM, 100 μM, 200 μM and 300 μM, untreated cells and reference drug (benznidazole) controls.

K562-TAX = assay: MTS antiproliferative assay K562-TAX; format: cell-based, human; conditions: 72 h of incubation, paclitaxel-resistant
Excerpt: as §3, §1, §2

K562 cell line = assay: Annexin V-FITC/PI flow cytometry apoptosis assay K562; format: cell-based, human; conditions: 24 h
Protocol: Cell death was assessed after 24 h incubation with compounds 18 and 22. Apoptosis was analyzed by flow cytometry using annexin V-FITC and propidium iodide (PI). Early apoptosis was defined by annexin V-FITC expression and, necrosis by PI expression, late apoptosis by coexpression of annexin V/PI. Doxorubicin and quercetin were used as positive controls. The results of a typical flow cytometry analysis of both compounds are illustrated in Figure 2 and Figure 3. An increase in early apoptosis and late apoptosis was observed; necrosis was less predominant. The results are summarized in Tables S1 and S2 (Supplementary Materials). The expression of annexin V was different depending on the compound used. K562, A549 cell lines were treated as described by the manufacturer (Santa Cruz Biotechnology), washed, and resuspended in annexin V binding buffer (0.01 M HEPES, 0.14 M NaCl, and 2.5 mM CaCl2) with the subsequent incubation of annexinV-FITC and then PI. An Epics XL cytometer (Beckman Coulter, Indianapolis, IN, USA) was used for the analysis. Untreated cells were the negative controls, and doxorubicin (Dox) (1 μM), and quercetin (QC) (50 μM) were the positive controls. Early apoptosis refers to annexin V expression, late apoptosis, the coexpression of annexin V and PI, and necrosis the sole expression of PI. […] The experiments were performed as described before. To avoid the unwanted effects of DMSO, the concentrations of the compounds were never higher than 100 μM.

- IC50 (CCRF-CEM): 5.23 ± 0.3 µM
- IC50 (K562-TAX): 21.4 ± 4.08 µM
- IC50 (K562-TAX; Homo sapiens, K562-Tax, 72 h): > 21.4 µM
SMILES: COc1ccc2c(c1)CC/C(=C\c1cccnc1Oc1ccc(Cl)cc1)C2=O [Compound 22, (E)-2-{[2-(4-Chlorophenoxy)pyridin-3-yl]methylene}-3,4-dihydro-6-methoxynaphthalen-1(2H)-one]
- IC50 (MRC-5): > 50 µM
- EC50 (VERO cells): > 100 µM
- AV+/IP+ (late apoptosis) (K562 cell line; K562, 5 µM): 1.85%
- AV+/IP- (early apoptosis) (K562 cell line; K562, 5 µM): 20.90%
- AV-/IP+ (necrosis) (K562 cell line; K562, 5 µM): 0.44%
- AV+/IP+ (late apoptosis) (K562 cell line; K562, 10 µM): 77.70%
- AV+/IP- (early apoptosis) (K562 cell line; K562, 10 µM): 21.80%
- AV-/IP+ (necrosis) (K562 cell line; K562, 10 µM): 0.29%
- annexin V-FITC expression (K562 cell line; K562, 10 µM): higher than 50%
